Measured values: US6964870B2, “Enhanced selection of genetically modified pine embryogenic tissue” (MeadWestvaco Corporation, priority 2000, dated 2005)

Key:
Type in all cases: cell-based
[1] = tested on: P. taeda embryogenic cell line P3; test: Agrobacterium transformation, transformants per selection plate with ABA in preparation/recovery/selection media
Text: (§1) Seven loblolly pine cell lines or hybrid cell lines from seven widely diverse genetic backgrounds were used in this experiment. To prepare for gene transfer using Agrobacterium, fabric supports were sterilized by autoclaving and placed in a sterile Buchner funnel, and one to five milliliters of embryogenic suspension was pipetted onto each support such that the embryogenic tissue was evenly distributed over its surface. Following this the liquid medium was suctioned from the tissues and each support bearing the embryogenic tissue was placed on gelled medium for inoculation by Agrobacterium. In this case the medium used was the same as the preparation medium described in Example 1 above, except that the medium, used here for preparation and co-cultivation of the cells, contained ABA at 0, 10, or 30 mg/L as an experimental condition. Genes were then introduced into the plant material by co-cultivation with Agrobacterium(Wenck et al. 1999). Specifically, gene constructs containing a reporter gene and a selectable marker were introduced into Agrobacterium tumefaciens strain EHA105 with the virulence-enhancing plasmid pTOK47 (Wenck et al. 1999), by techniques well known to those skilled in the art, and virulence was then induced with administration of acetosyringone by commonly used techniques, well known to those skilled in the art, whereupon the induced Agrobacterium was dripped over the plant material and these were co-cultivated in the dark at 23°±2° C. for approximately 24-72 hours. Those skilled in the art recognize that many different gene constructs, plasmids, strains, media, and co-cultivation times and protocols would be suitable for use in the present method.
(§2) Following co-cultivation, cells were re-suspended into fresh DCR4 liquid wash medium (Table 2) containing eradicants such as 200-400 mg/L TIMENTIN® antibiotic. The DCR4 liquid wash medium was contained in sterile “baby food” jars with MAGENTA® aerated lids, conventional beakers, or multi-well plates. Resuspension was initiated by grasping the membrane support bearing the infected cells, using forceps, and rolling or folding it so that it could be taken up and placed into the liquid in the wash container. The liquid was then agitated to get the cells into suspension, and the membrane support was scraped with sterile forceps if cells appeared to be adhering to it. Once the cells were in suspension, the membrane was removed with sterile forceps.
(§3) Following this wash step, the cells were plated onto fresh sterile support membranes of the same type as used in the previous step, again by placing the fresh sterile support membranes in a sterile Buchner funnel, pipetting the suspension of plant cells onto the membranes, and again suctioning the liquid medium from the tissues using a mild vacuum. The cells were again resuspended in and cultured in fresh sterile wash medium by agitating the membrane bearing the cells in the liquid, again removing cells that appeared to be adhering by gently scraping with forceps. The cells were then re-plated on fresh membrane supports over Buchner funnels. This procedure was repeated twice before the cells were again plated on supports as described above.
(§4) Supports bearing approximately 0.1 g of embryogenic tissue were divided onto recovery media (having the same formulation as the maintenance medium except for the addition of 400 mg/L TIMENTIN® antibiotic) either containing or lacking ABA. […] Concentrations of ABA used in all these media were 0, 10, and 30 mg/l.
(§5) Cells were maintained on the selection media, with transfer of the polyester support membranes to fresh selection media of the same composition, every two weeks for a total of eight weeks of selection. Cells from actively growing sublines from selection were examined using stereomicroscopes for the expression of the visual marker gene uidA at the conclusion of the selection period. […]

[2] = tested on: P. taeda embryogenic cell line P5; test: as above
Text: as §1, §2, §3, §4, §5

[3] = tested on: P. taeda embryogenic cell line P2; test: as above
Text: as §1, §2, §3, §4, §5

[4] = tested on: precotyledonary embryos of loblolly pine or hybrid cell lines; test: Bombardment of precotyledonary embryos on preparation medium with high ABA (Example 3); conditions: preparation medium for bombardment with 125 mg/L ABA; lines of cross 7-56×9-6 and others incl. interspecific hybrids
Method: For transformation in this example, the tissue was bombarded using conditions described in Example 1 except that the tissue had been plated on MSG2 medium containing 125 mg/L ABA and 70 g/L PEG 3-8 weeks previously, instead of on medium DCR3 one day previously, so that the experimental treatment consisted of precotyledonary embryos at various stages of development. Following DNA transfer, visible pre-stage 3 embryos were dissected from the bombarded tissues and placed individually onto DCR2 as described above for secondary proliferation.
Following a period of one to 14 days, when a preponderance of pre-stage 3 embryos dissected from the bombarded tissue could be seen to be beginning to proliferate secondary embryogenic cell masses, samples to be assayed for transformation were transferred to a selection medium identical to DCR2 except that it contained […] to initiate secondary embryogenesis. Samples of isolated pre-stage 3 embryos from each line and the secondary tissue proliferating from them were also cultured on DCR2 maintenance media without selection agent to observe any effect of the bombardment treatment on proliferation. These cultures were transferred to fresh maintenance media every three weeks. Proliferation of these non-selected controls at nine weeks after dissection is recorded in Table 4. […]

[5] = tested on: loblolly pine cell lines or hybrid cell lines; test: ABA in culture media during and after co-cultivation with Agrobacterium, all lines (Example 4)
Text: as §1, §4
Cells were maintained on the selection media, with transfer of the polyester support membranes to fresh selection media of the same composition, every two weeks for a total of eight weeks of selection. Cells from actively growing sublines from selection were examined using stereomicroscopes for the expression of the visual marker gene uidA at the conclusion of the selection period. All of the sublines capable of active growth on selection medium were seen to express levels of the visual marker gene product that enabled them to be readily distinguished from non-selected cells. This continuing expression of the transgenes after at least twelve weeks following bombardment confirmed the integration of the transgenes in these sublines. […]

[6] = ABA mg/l in preparation/recovery/selection medium 0/0/10
[7] = ABA mg/l in preparation/recovery/selection medium 0/0/30
[8] = ABA mg/l in preparation/recovery/selection medium 0/10/10
[9] = ABA mg/l in preparation/recovery/selection medium 0/10/30
[10] = ABA mg/l in preparation/recovery/selection medium 0/30/30
[11] = ABA mg/l in preparation/recovery/selection medium 10/10/10
[12] = ABA mg/l in preparation/recovery/selection medium 30/10/10
[13] = ABA mg/l in preparation/recovery/selection medium 30/30/30

## CC1=CC(=O)CC(C)(C)[C@@]1(O)/C=C/C(C)=C\C(=O)O [ABA, abscisic acid]
[1]; [6]
  Average (n = 12) Number of Transformants observed per Selection Plate: 21.7 +/− 3.6
[1]; [7]
  Average (n = 12) Number of Transformants observed per Selection Plate: 22.3 +/− 5.4
[1]; [8]
  Average (n = 12) Number of Transformants observed per Selection Plate: 23.3 +/− 2.8
[1]; [9]
  Average (n = 12) Number of Transformants observed per Selection Plate: 26.0 +/− 6.9
[1]; [10]
  Average (n = 12) Number of Transformants observed per Selection Plate: 18.6 +/− 5.1
[1]; [11]
  Average (n = 12) Number of Transformants observed per Selection Plate: 22.6 +/− 4.3
[1]; [12]
  Average (n = 12) Number of Transformants observed per Selection Plate: 21.6 +/− 3.6
[1]; [13]
  Average (n = 12) Number of Transformants observed per Selection Plate: 21.1 +/− 2.3
[2]; [6]
  Average (n = 12) Number of Transformants observed per Selection Plate: 18.1 +/− 4.0
[2]; [7]
  Average (n = 12) Number of Transformants observed per Selection Plate: 5.5 +/− 3.1
[2]; [8]
  Average (n = 12) Number of Transformants observed per Selection Plate: 2.4 +/− 2.0
[2]; [9]
  Average (n = 12) Number of Transformants observed per Selection Plate: 7.2 +/− 2.1
[2]; [10]
  Average (n = 12) Number of Transformants observed per Selection Plate: 3.3 +/− 2.1
[2]; [11]
  Average (n = 12) Number of Transformants observed per Selection Plate: 10.3 +/− 2.4
[2]; [12]
  Average (n = 12) Number of Transformants observed per Selection Plate: 11.3 +/− 2.4
[2]; [13]
  Average (n = 12) Number of Transformants observed per Selection Plate: 14.3 +/− 3.5
[3]; [6]
  Average (n = 12) Number of Transformants observed per Selection Plate: 5.8 +/− 2.3
[3]; [7]
  Average (n = 12) Number of Transformants observed per Selection Plate: 8.8 +/− 4.8
[3]; [8]
  Average (n = 12) Number of Transformants observed per Selection Plate: 1.0 +/− 1.0
[3]; [9]
  Average (n = 12) Number of Transformants observed per Selection Plate: 0.3 +/− 0.5
[3]; [10]
  Average (n = 12) Number of Transformants observed per Selection Plate: 5.2 +/− 6.1
[3]; [11]
  Average (n = 12) Number of Transformants observed per Selection Plate: 10.0
[3]; [12]
  Average (n = 12) Number of Transformants observed per Selection Plate: 5.9 +/− 2.4
[3]; [13]
  Average (n = 12) Number of Transformants observed per Selection Plate: 5.3 +/− 2.5
[4]
  frequency of transformants: surprisingly high frequency of transformants
[5]; 10 or 30 mg/L ABA during and after co-cultivation with Agrobacterium vs media without ABA, all lines
  necrotic foci in somatic embryogenic masses: fewer necrotic foci
[5]; 10 or 30 mg/l ABA in the preparation medium
  effect on observation of transformants: neutral or beneficial
[5]; ABA in recovery medium after co-cultivation with Agrobacterium vs no ABA, certain P. taeda lines and hybrids
  doubling of somatic embryogenic masses: able to double more rapidly
[5]; ABA in the recovery medium
  effect on observation of transformants: similarly neutral or beneficial
